Reference: patent US20120122860A1, “SOLID FORMS OF SULFONAMIDES AND AMINO ACIDS” (Plexxikon, Inc., priority 2009, published 2012)

Key:
Kit = Kit (Homo sapiens, UniProt P10721); test: Kinase activity assay, Kit
Kdr = Kdr (Homo sapiens, UniProt P35968); test: Kinase activity assay, Kdr
Fms = Fms (Homo sapiens, UniProt P07333); test: Kinase activity assay, Fms
C-Raf = C-Raf (Homo sapiens, UniProt P04049); test: Kinase activity assay, C-Raf
B-Raf V600E = B-Raf V600E (Homo sapiens, UniProt P15056, V600E); test: Kinase activity assay, B-Raf V600E; format: biochemical; details: read-out: activity toward kinase B-Raf V600E, IC50
Sequence of B-Raf V600E (P15056 whole entry V600E): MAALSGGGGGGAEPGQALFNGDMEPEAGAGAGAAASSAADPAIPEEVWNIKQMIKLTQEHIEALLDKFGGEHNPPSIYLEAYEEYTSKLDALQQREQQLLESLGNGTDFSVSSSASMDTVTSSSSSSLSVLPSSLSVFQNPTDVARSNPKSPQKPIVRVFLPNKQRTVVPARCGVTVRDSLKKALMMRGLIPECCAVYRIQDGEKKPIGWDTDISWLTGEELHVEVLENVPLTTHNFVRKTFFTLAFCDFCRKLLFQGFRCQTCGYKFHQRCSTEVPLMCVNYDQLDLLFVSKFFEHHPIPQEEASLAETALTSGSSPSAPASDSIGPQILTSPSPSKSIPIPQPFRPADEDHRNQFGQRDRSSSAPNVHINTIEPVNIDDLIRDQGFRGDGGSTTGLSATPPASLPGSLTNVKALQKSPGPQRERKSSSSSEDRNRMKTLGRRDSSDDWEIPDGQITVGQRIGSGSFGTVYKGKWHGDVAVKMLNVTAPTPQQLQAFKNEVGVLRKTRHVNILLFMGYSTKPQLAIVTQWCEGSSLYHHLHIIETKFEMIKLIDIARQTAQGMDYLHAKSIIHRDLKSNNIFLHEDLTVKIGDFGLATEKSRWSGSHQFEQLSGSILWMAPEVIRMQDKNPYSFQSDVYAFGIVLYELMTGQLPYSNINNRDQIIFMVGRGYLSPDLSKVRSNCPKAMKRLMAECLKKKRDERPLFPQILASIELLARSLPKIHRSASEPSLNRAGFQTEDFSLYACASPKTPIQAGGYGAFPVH

MAP4K4 = MAP4K4 (Homo sapiens, UniProt O95819); test: Kinase activity assay, MAP4K4
Sequence of MAP4K4 (O95819 whole entry): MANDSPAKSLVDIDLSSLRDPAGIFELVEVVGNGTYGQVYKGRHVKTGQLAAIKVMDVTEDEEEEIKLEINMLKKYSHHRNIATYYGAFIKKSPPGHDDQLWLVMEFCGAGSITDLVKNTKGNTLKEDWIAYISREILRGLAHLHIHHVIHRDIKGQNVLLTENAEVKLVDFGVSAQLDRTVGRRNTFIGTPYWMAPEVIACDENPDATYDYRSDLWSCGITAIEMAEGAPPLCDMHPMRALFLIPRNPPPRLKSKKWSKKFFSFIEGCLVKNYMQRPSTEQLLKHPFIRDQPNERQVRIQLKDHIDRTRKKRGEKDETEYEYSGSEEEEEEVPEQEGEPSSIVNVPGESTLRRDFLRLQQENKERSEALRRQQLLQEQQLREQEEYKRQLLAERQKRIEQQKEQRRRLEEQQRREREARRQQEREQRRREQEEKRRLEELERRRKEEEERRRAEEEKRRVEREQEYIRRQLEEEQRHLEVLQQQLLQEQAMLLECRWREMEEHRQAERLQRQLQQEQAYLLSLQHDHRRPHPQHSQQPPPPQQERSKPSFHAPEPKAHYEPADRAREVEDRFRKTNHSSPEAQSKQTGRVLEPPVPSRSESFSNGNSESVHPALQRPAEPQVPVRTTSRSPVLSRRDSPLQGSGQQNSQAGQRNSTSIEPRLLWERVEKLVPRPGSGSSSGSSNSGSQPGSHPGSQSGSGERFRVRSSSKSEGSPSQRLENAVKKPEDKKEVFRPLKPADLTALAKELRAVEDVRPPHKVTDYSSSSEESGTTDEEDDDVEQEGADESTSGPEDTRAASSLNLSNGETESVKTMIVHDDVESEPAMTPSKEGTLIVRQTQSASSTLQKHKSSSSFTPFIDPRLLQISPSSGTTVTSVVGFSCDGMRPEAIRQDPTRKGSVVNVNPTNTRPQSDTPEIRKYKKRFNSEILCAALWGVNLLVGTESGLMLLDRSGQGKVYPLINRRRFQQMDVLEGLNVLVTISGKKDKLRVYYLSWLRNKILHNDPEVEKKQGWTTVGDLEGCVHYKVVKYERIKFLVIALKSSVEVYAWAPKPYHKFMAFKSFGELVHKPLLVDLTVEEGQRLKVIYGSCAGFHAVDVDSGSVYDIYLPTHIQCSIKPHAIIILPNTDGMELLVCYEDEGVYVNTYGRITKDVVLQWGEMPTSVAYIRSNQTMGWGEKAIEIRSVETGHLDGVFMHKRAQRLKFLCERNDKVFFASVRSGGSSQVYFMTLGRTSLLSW

B-Raf = B-Raf (Homo sapiens, UniProt P15056); test: Kinase activity assay, B-Raf; format: biochemical; details: read-out: activity toward kinase B-Raf, IC50
Src = Src (Homo sapiens, UniProt P12931); test: Kinase activity assay, Src
Sequence of Src (P12931 whole entry): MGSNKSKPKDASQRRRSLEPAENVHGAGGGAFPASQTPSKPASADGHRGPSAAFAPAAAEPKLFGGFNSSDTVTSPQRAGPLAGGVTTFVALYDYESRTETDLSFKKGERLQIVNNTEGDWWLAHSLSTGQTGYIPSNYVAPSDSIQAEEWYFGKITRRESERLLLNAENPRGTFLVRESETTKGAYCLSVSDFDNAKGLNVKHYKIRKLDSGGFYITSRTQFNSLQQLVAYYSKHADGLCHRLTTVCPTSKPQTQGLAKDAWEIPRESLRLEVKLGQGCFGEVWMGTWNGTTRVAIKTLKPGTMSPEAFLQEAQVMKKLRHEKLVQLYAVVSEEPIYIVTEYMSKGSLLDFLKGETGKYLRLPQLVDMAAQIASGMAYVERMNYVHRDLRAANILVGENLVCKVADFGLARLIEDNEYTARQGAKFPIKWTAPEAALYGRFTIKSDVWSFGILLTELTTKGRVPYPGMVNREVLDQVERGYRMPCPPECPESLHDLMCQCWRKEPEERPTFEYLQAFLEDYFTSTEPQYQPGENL

A-Raf = molecular target: T1, A-Raf (Homo sapiens, UniProt P10398); test: Kinase activity assay, A-Raf
T1 sequence (P10398 1-606): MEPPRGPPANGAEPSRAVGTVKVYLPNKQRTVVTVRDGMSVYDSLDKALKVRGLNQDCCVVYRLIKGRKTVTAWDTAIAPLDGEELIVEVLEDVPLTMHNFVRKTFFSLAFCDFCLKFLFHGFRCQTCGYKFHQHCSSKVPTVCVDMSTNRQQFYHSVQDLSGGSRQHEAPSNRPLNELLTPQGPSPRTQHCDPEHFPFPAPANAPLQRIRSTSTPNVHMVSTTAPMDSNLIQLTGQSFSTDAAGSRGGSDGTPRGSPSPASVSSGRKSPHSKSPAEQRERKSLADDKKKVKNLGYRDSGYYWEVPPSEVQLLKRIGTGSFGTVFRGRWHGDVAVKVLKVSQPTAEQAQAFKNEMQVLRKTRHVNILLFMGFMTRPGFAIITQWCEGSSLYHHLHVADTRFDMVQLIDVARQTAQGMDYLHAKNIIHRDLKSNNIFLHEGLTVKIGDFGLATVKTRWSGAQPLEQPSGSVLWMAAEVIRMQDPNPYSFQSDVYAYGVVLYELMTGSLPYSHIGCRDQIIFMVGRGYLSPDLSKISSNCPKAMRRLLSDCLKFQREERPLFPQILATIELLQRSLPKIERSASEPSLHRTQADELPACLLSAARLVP

Sequence of Kit (P10721 26-976): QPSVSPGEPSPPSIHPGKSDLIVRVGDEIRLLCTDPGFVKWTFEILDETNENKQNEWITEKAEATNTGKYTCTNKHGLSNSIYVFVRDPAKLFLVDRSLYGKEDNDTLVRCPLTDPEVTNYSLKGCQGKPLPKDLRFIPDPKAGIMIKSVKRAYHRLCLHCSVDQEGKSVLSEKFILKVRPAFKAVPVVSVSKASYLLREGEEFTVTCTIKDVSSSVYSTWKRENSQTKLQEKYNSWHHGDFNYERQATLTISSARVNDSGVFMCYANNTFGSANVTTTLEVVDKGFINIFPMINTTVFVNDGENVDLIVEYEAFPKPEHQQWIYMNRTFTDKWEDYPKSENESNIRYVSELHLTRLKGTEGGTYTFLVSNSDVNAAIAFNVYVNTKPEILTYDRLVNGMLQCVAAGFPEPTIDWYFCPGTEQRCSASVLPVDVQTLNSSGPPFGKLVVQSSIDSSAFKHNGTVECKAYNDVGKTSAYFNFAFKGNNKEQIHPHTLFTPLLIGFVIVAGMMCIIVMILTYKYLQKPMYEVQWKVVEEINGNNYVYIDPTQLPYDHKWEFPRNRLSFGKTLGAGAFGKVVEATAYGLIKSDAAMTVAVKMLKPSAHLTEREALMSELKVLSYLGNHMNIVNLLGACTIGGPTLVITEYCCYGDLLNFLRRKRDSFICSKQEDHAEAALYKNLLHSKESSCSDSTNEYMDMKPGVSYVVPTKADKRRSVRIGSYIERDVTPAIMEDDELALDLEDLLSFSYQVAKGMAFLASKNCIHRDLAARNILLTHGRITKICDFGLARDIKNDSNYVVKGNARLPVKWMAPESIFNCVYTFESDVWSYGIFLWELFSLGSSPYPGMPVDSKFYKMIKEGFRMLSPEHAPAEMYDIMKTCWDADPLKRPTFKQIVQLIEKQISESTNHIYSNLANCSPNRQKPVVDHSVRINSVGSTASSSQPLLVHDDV
Sequence of Fms (P07333 20-972): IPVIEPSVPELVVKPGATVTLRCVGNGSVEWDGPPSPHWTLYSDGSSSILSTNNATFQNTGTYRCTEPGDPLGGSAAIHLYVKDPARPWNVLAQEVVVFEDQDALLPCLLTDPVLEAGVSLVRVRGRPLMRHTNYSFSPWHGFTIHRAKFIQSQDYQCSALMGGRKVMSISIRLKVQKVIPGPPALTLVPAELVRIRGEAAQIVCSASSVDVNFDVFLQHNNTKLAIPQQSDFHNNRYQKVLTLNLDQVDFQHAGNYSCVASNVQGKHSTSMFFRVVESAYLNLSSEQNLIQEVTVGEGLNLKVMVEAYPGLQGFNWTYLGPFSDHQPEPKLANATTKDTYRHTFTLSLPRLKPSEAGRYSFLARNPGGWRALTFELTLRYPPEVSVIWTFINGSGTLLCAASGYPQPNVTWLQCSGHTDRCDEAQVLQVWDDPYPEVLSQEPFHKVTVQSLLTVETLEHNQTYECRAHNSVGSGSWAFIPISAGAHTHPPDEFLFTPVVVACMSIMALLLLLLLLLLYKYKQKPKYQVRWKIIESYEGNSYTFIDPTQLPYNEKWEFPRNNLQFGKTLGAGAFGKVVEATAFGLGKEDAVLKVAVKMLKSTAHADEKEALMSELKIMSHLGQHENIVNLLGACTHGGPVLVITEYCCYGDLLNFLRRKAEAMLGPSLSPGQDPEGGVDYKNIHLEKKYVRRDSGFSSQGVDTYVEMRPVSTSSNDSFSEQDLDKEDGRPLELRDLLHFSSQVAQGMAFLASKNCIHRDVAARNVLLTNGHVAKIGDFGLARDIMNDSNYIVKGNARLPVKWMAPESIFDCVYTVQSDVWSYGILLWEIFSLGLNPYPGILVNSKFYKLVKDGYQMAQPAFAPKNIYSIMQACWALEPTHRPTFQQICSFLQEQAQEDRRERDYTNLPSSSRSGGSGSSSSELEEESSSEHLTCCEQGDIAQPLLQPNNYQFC
Sequence of C-Raf (P04049 whole entry): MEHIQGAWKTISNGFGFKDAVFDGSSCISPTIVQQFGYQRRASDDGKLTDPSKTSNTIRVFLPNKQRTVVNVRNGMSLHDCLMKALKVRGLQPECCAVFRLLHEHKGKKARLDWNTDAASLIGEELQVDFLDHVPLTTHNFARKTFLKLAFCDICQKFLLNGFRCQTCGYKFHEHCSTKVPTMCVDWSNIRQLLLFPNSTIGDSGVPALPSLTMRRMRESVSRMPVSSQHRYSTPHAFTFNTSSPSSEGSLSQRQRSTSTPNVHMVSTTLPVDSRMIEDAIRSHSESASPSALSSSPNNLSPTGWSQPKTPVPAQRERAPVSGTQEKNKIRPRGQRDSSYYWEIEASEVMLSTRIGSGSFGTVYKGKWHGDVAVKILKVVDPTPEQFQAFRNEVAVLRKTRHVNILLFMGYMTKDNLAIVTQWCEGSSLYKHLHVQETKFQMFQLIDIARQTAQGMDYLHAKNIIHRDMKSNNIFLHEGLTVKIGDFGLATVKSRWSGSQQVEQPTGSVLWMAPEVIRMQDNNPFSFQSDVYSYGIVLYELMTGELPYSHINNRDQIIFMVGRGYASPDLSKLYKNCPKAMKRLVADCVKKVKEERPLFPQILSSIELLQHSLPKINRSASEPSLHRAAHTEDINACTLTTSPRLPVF

Row | IC50 (Kit) | IC50 (Kdr) | IC50 (Fms) | IC50 (C-Raf) | IC50 (B-Raf V600E) | IC50 (MAP4K4) | IC50 (B-Raf) | IC50 (Src) | IC50 (A-Raf) | Compound
1 | ≤ 10 µM | ≤ 10 µM | ≤ 10 µM | ≤ 10 µM | ≤ 10 µM | ≤ 10 µM | ≤ 10 µM | ≤ 10 µM | ≤ 10 µM | O=C(c1c(F)ccc(NS(=O)(=O)c2cc(F)ccc2F)c1F)c1c[nH]c2ncc(Cl)cc12 [P-2002, N-[3-(5-Chloro-1H-pyrrolo[2,3-b]pyridine-3-carbonyl)-2,4-difluoro-phenyl]-2,5-difluoro-benzenesulfonamide]
2 | ≤ 10 µM | ≤ 10 µM |  | ≤ 10 µM | ≤ 10 µM | ≤ 10 µM | ≤ 10 µM | ≤ 10 µM | ≤ 10 µM | CC(C)S(=O)(=O)Nc1ccc(F)c(C(=O)c2c[nH]c3ncc(Cl)cc23)c1F [P-2275, Propane-2-sulfonic acid [3-(5-chloro-1H-pyrrolo[2,3-b]pyridine-3-carbonyl)-2,4-difluoro-phenyl]-amide]
3 | ≤ 10 µM | ≤ 10 µM |  | ≤ 10 µM | ≤ 10 µM | ≤ 10 µM | ≤ 10 µM | ≤ 10 µM | ≤ 10 µM | CS(=O)(=O)Nc1ccc(F)c(C(=O)c2c[nH]c3nccc(Cl)c23)c1F [P-2290, N-[3-(4-Chloro-1H-pyrrolo[2,3-b]pyridine-3-carbonyl)-2,4-difluoro-phenyl]-methanesulfonamide]
4 | ≤ 10 µM | ≤ 10 µM |  | ≤ 10 µM | ≤ 10 µM | ≤ 10 µM | ≤ 10 µM | ≤ 10 µM | ≤ 10 µM | Cc1cnc2[nH]cc(C(=O)c3c(F)ccc(NS(=O)(=O)CCC(F)(F)F)c3F)c2c1 [P-2328, 3,3,3-Trifluoro-propane-1-sulfonic acid [2,4-difluoro-3-(5-methyl-1H-pyrrolo[2,3-b]pyridine-3-carbonyl)-phenyl]-amide]
5 | ≤ 10 µM | ≤ 10 µM |  | ≤ 10 µM | ≤ 10 µM | ≤ 10 µM | ≤ 10 µM | ≤ 10 µM | ≤ 10 µM | COc1cnc2[nH]cc(C(=O)c3c(F)ccc(NS(=O)(=O)CC(F)(F)F)c3F)c2c1 [P-2335, 2,2,2-Trifluoro-ethanesulfonic acid [2,4-difluoro-3-(5-methoxy-1H-pyrrolo[2,3-b]pyridine-3-carbonyl)-phenyl]-amide]
6 |  | ≤ 10 µM | ≤ 10 µM | ≤ 10 µM | ≤ 10 µM | ≤ 10 µM | ≤ 10 µM | ≤ 10 µM | ≤ 10 µM | O=C(c1c(F)ccc(NS(=O)(=O)CC(F)(F)F)c1F)c1c[nH]c2ncc(Cl)cc12 [P-2339, 2,2,2-Trifluoro-ethanesulfonic acid [3-(5-chloro-1H-pyrrolo[2,3-b]pyridine-3-carbonyl)-2,4-difluoro-phenyl]-amide]
7 | ≤ 10 µM | ≤ 10 µM |  | ≤ 10 µM | ≤ 10 µM | ≤ 10 µM | ≤ 10 µM | ≤ 10 µM | ≤ 10 µM | COc1cnc2[nH]cc(C(=O)c3c(F)ccc(NS(=O)(=O)C(F)(F)F)c3F)c2c1 [P-2347, N-[2,4-Difluoro-3-(5-methoxy-1H-pyrrolo[2,3-b]pyridine-3-carbonyl)-phenyl]-C,C,C-trifluoro-methanesulfonamide]
8 | ≤ 10 µM | ≤ 10 µM |  | ≤ 10 µM | ≤ 10 µM | ≤ 10 µM | ≤ 10 µM | ≤ 10 µM | ≤ 10 µM | O=C(c1c(F)ccc(NS(=O)(=O)N2CCCC2)c1F)c1c[nH]c2ncc(Cl)cc12 [P-2375, Pyrrolidine-1-sulfonic acid [3-(5-chloro-1H-pyrrolo[2,3-b]pyridine-3-carbonyl)-2,4-difluoro-phenyl]-amide]

Further lines, the compound ahead of its results:

Row | Compound | IC50 (Kit) | IC50 (Kdr) | IC50 (Fms) | IC50 (C-Raf) | IC50 (B-Raf V600E) | IC50 (MAP4K4) | IC50 (B-Raf) | IC50 (Src) | IC50 (A-Raf)
9 | COc1cnc2[nH]cc(C(=O)c3c(F)ccc(NS(=O)(=O)c4cc(F)ccc4F)c3F)c2c1 [P-2010, N-[2,4-Difluoro-3-(5-methoxy-1H-pyrrolo[2,3-b]pyridine-3-carbonyl)-phenyl]-2,5-difluoro-benzenesulfonamide] | ≤ 10 µM | ≤ 10 µM | ≤ 10 µM | ≤ 10 µM | ≤ 10 µM | ≤ 10 µM | ≤ 10 µM | ≤ 10 µM | ≤ 10 µM
10 | Cc1cnc2[nH]cc(C(=O)c3c(F)ccc(NS(=O)(=O)c4cc(F)ccc4F)c3F)c2c1 [P-2015, N-[2,4-Difluoro-3-(5-methyl-1H-pyrrolo[2,3-b]pyridine-3-carbonyl)-phenyl]-2,5-difluoro-benzenesulfonamide] | ≤ 10 µM | ≤ 10 µM | ≤ 10 µM | ≤ 10 µM | ≤ 10 µM | ≤ 10 µM | ≤ 10 µM | ≤ 10 µM | ≤ 10 µM
11 | O=C(c1c(F)ccc(NS(=O)(=O)c2ccccc2F)c1F)c1c[nH]c2nccc(Cl)c12 [P-2017, N-[3-(4-Chloro-1H-pyrrolo[2,3-b]pyridine-3-carbonyl)-2,4-difluoro-phenyl]-2-fluoro-benzenesulfonamide] | ≤ 10 µM | ≤ 10 µM | ≤ 10 µM | ≤ 10 µM | ≤ 10 µM | ≤ 10 µM | ≤ 10 µM | ≤ 10 µM | ≤ 10 µM
12 | O=C(c1c(F)ccc(NS(=O)(=O)c2cc(F)ccc2F)c1F)c1c[nH]c2nccc(Cl)c12 [P-2018, N-[3-(4-Chloro-1H-pyrrolo[2,3-b]pyridine-3-carbonyl)-2,4-difluoro-phenyl]-2,5-difluoro-benzenesulfonamide] | ≤ 10 µM | ≤ 10 µM | ≤ 10 µM | ≤ 10 µM | ≤ 10 µM | ≤ 10 µM | ≤ 10 µM | ≤ 10 µM | ≤ 10 µM
13 | CCCc1ccc(-c2cnc3[nH]cc(C(=O)c4c(F)ccc(NS(=O)(=O)CCC)c4F)c3c2)cn1 [P-2224, Propane-1-sulfonic acid {2,4-difluoro-3-[5-(6-propyl-pyridin-3-yl)-1H-pyrrolo[2,3-b]pyridine-3-carbonyl]-phenyl}-amide] | ≤ 10 µM | ≤ 10 µM | ≤ 10 µM | ≤ 10 µM | ≤ 10 µM | ≤ 10 µM | ≤ 10 µM | ≤ 10 µM | ≤ 10 µM
14 | CCCS(=O)(=O)Nc1ccc(F)c(C(=O)c2c[nH]c3ncc(CCC(=O)OC)cc23)c1F [P-2230, 3-{3-[2,6-Difluoro-3-(propane-1-sulfonylamino)-benzoyl]-1H-pyrrolo[2,3-b]pyridin-5-yl}-propionic acid methyl ester] | ≤ 10 µM | ≤ 10 µM | ≤ 10 µM | ≤ 10 µM | ≤ 10 µM | ≤ 10 µM | ≤ 10 µM | ≤ 10 µM | ≤ 10 µM
15 | COc1cnc2[nH]cc(C(=O)c3c(F)ccc(NS(=O)(=O)CCC(F)(F)F)c3F)c2c1 [P-2327, 3,3,3-Trifluoro-propane-1-sulfonic acid [2,4-difluoro-3-(5-methoxy-1H-pyrrolo[2,3-b]pyridine-3-carbonyl)-phenyl]-amide] | ≤ 10 µM | ≤ 10 µM |  | ≤ 10 µM | ≤ 10 µM | ≤ 10 µM | ≤ 10 µM | ≤ 10 µM | ≤ 10 µM
16 | O=C(c1c(F)ccc(NS(=O)(=O)CCC(F)(F)F)c1F)c1c[nH]c2nccc(Cl)c12 [P-2329, 3,3,3-Trifluoro-propane-1-sulfonic acid [3-(4-chloro-1H-pyrrolo[2,3-b]pyridine-3-carbonyl)-2,4-difluoro-phenyl]-amide] | ≤ 10 µM | ≤ 10 µM |  | ≤ 10 µM | ≤ 10 µM | ≤ 10 µM | ≤ 10 µM | ≤ 10 µM | ≤ 10 µM
17 | O=C(c1c(F)ccc(NS(=O)(=O)CC(F)(F)F)c1F)c1c[nH]c2nccc(Cl)c12 [P-2338, 2,2,2-Trifluoro-ethanesulfonic acid [3-(4-chloro-1H-pyrrolo[2,3-b]pyridine-3-carbonyl)-2,4-difluoro-phenyl]-amide] | ≤ 10 µM | ≤ 10 µM |  | ≤ 10 µM | ≤ 10 µM | ≤ 10 µM | ≤ 10 µM | ≤ 10 µM | ≤ 10 µM
